# Test results reported in patent US20210116454A1, “METHODS FOR TREATING A HEMATOLOGICAL CANCER AND THE USE OF COMPANION BIOMARKERS FOR 2-(2,6-DIOXOPIPERIDIN-3-YL)-4-((2-FLUORO-4-((3-MORPHOLINOAZETIDIN-1-YL)METHYL)BENZYL)AMINO)ISOINDOLINE-1,3-DIONE” (CELGENE CORPORATION, priority 2019, published 2021).
# What was measured:
# DoxoR cell lines = assay: Doxorubicin-resistant (DoxoR) versus matching parental DLBCL lines; assay type: cell-based; settings: DoxoR versus matching parental cells
# Experimental: The activity of Compound 1 was also evaluated in cell lines with acquired resistance to doxorubicin (Table 4). Doxorubicin-resistant cell lines (DoxoR) were generated by culturing the parental cell lines in vitro with increasing concentrations of doxorubicin for a long period of time (˜9 to 18 months) until they were able to grow in the presence of a relatively high concentration of doxorubicin (1 μM). Matching parental (M-Parent) cells were generated by maintaining the parental cells in culture without treatment for the same amount of time (˜9 to 18 months). The growth-inhibitory effect of doxorubicin on parental cells and the corresponding resistant cells was evaluated by measuring the number of viable cells and extent of apoptosis by 7-AAD exclusion and Annexin V staining using flow cytometry.
# Farage CRBN^-/- cells = assay: Cell proliferation in CRBN^-/- (knock out) cells, 5 days; assay type: cell-based; settings: 120 h
# Excerpt: (§1) The activated B-cell (ABC) and MYC/BCL2 double expressor cell lines SU-DHL-2 and RIVA, the germinal center B-cell (GCB) and MYC/BCL2 double hit cell lines (and expressing BCL6) Karpas-422, SU-DHL-10, WSU-DLCL2, and the primary mediastinal B-cell lymphoma (PMBL) cell line Farage were infected with a CAS9 expressing lentivirus construct to generate the control CAS9 expressing cells. The Cas9 cells had wild type cereblon expression (CRBN^WT).
# (§2) To generate the cereblon knock out cells (CRBN^−/−), the individual control CAS9 cells were infected with a construct expressing a subgenomic single guide RNA (sgRNA). Western blot analysis confirmed the absence of cereblon protein in the CRBN^−/− cells, relative to the levels of the housekeeping protein β-tubulin. The CRBN^WT and CRBN^−/− cells were treated with increasing concentrations of Compound 1 for five days.
# [1] = tested on: Karpas-422 CRBN^-/- cells; assay: as above; assay type: cell-based; settings: Homo sapiens, 120 h
# Excerpt: as §1, §2
# WSU-DLCL2 CRBN^-/- cells = assay: as above; assay type: cell-based; settings: Homo sapiens, WSUDLCL2, 120 h
# Excerpt: as §1, §2
# SU-DHL2 CRBN^-/- cells = assay: as above; assay type: cell-based; settings: Homo sapiens, SU-DHL-2, 120 h
# Excerpt: as §1, §2
# RIVA CRBN^-/- cells = assay: as above; assay type: cell-based; settings: 120 h
# Excerpt: as §1, §2
# SU-DHL10 CRBN^-/- cells = assay: as above; assay type: cell-based; settings: Homo sapiens, 120 h
# Excerpt: as §1, §2
# SU-DHL-2^CRBNWT cells = assay: Western blot time- and concentration-response of endogenous substrates; assay type: cell-based; settings: 10 and 100 nM, entire course of treatment
# Excerpt: However, Compound 1 had no activity in SU-DHL-2^CRBN−/− cells, indicating the requirement of cereblon for induction of apoptosis by Compound 1 in DLBCL (FIG. 5 C).
# [2] = tested on: endothelial cells, T- and B-lymphocytes, coronary smooth muscle cells, and fibroblasts; assay: BioMAP Diversity PLUS Panel, antiproliferative effects; assay type: cell-based, human
# Experimental: The BioMAP Diversity PLUS Panel was assessed after treatment with Compound 1. The X-axis lists the quantitative protein-based biomarker readouts measured in each system. The Y-axis represents a log-transformed ratio of the biomarker readouts for the drug-treated sample (n=1) over vehicle controls (n≥6). The grey region around the Y-axis represents the 95% significance envelope generated from historical vehicle controls. Biomarker activities were annotated when 2 or more consecutive concentrations change in the same direction relative to vehicle controls, are outside of the significance envelope, and have at least one concentration with an effect size >20% (log 10 ratio >0.1). Antiproliferative effects are indicated by a thick grey arrow.
# The activity of Compound 1 was profiled in a panel of human primary cell-based assays, modeling complex tissue and disease biology of organs (vasculature, immune system, skin, lung) and general tissue biology using the BioMAP System (DiscoveRx, Fremont, Calif.).
# The BioMAP System consists of twelve primary human monoculture or co-culture systems in stimulated and non-stimulated control conditions (FIG. 4, panel A). When tested at 0.01, 0.1, 1, and 10 μM, Compound 1 mediated changes in key biomarker activities. […]
# SU-DHL2 CRBN^WT cells = assay: Cell proliferation in CRBN^WT (CAS9 control) cells, 5 days; assay type: cell-based; settings: Homo sapiens, SU-DHL-2, 120 h
# Excerpt: as §1, §2
# SU-DHL10 CRBN^WT cells = assay: as above; assay type: cell-based; settings: Homo sapiens, 120 h
# Excerpt: as §1, §2
# RIVA CRBN^WT cells = assay: as above; assay type: cell-based; settings: 120 h
# Excerpt: as §1, §2
# Farage CRBN^WT cells = assay: as above; assay type: cell-based; settings: 120 h
# Excerpt: as §1, §2
# Karpas-422 CRBN^WT cells = assay: as above; assay type: cell-based; settings: Homo sapiens, 120 h
# Excerpt: as §1, §2
# WSU-DLCL2 CRBN^WT cells = assay: as above; assay type: cell-based; settings: Homo sapiens, WSUDLCL2, 120 h
# Excerpt: as §1, §2
smiles,measurement,setting,value
"COc1cccc2c1C(=O)c1c(O)c3c(c(O)c1C2=O)C[C@@](O)(C(=O)CO)C[C@@H]3O[C@H]1C[C@H](N)[C@H](O)[C@H](C)O1 [Doxorubicin, reference compound]",shifts in IC50 values for doxorubicin in DoxoR lines,DoxoR cell lines,more than 100 fold
"O=C1CC[C@H](N2C(=O)c3cccc(NCc4ccc(CN5CC(N6CCOCC6)C5)cc4F)c3C2=O)C(=O)N1 [Compound 1, (S)-2-(2,6-dioxopiperidin-3-yl)-4-((2-fluoro-4-((3-morpholinoazetidin-1-yl)methyl)benzyl)amino)isoindoline-1,3-dione]",IC50,Farage CRBN^-/- cells,> 10000 nM
same,IC50,[1],> 10000 nM
same,IC50,WSU-DLCL2 CRBN^-/- cells,> 10000 nM
same,IC50,SU-DHL2 CRBN^-/- cells,> 10000 nM
same,IC50,RIVA CRBN^-/- cells,> 10000 nM
same,IC50,SU-DHL10 CRBN^-/- cells,> 10000 nM
same,"Ikaros, Aiolos, and ZFP91 protein expression",SU-DHL-2^CRBNWT cells,complete suppression
same,antiproliferative effects in BioMAP systems,[2],selectively antiproliferative
same,Emax,SU-DHL2 CRBN^WT cells,1%
same,IC50,SU-DHL2 CRBN^WT cells,2.5 nM
same,Emax,SU-DHL10 CRBN^WT cells,0%
same,IC50,SU-DHL10 CRBN^WT cells,35 nM
same,Emax,RIVA CRBN^WT cells,30%
same,IC50,RIVA CRBN^WT cells,8 nM
same,Emax,Farage CRBN^WT cells,0.5%
same,IC50,Farage CRBN^WT cells,8 nM
same,Emax,Karpas-422 CRBN^WT cells,5%
same,IC50,Karpas-422 CRBN^WT cells,15 nM
same,Emax,WSU-DLCL2 CRBN^WT cells,19%
same,IC50,WSU-DLCL2 CRBN^WT cells,40 nM
